{"source": "paper PMC11742003", "about": "“Co-expression of the RPS6KB1 and PDPK1 genes for production of activated p70S6K1 using bac-to-bac baculovirus expression system” (Molecular Biology Reports, 2025)", "molecular_target": "T1, p70S6K1 (His-actS6K1; Ribosomal protein S6 kinase 1) (Homo sapiens, UniProt P23443, T412D)", "T1 construct": "gene RPS6KB1; 6xHis-tagged S6K1 residues 3-398 (ΔAID), phosphorylated at T229 by co-expressed PDPK1(ΔPH)", "T1 sequence (P23443 26-421 T412D)": "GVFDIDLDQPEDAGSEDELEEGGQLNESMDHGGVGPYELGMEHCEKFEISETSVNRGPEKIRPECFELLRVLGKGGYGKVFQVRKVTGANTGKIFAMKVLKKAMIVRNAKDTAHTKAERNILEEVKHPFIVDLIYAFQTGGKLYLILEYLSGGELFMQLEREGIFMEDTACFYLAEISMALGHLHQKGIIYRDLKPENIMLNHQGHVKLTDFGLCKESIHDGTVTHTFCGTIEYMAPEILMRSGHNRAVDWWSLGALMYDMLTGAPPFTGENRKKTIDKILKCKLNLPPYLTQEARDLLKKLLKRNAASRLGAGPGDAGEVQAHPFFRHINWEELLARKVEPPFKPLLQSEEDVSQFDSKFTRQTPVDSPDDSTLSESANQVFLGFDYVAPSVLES", "test": "AlphaScreen kinase assay with biotinylated rpS6 peptide, […] ATP, purified enzyme", "format": "biochemical", "data": [{"compound": "Cn1cc(-c2ccc(F)c(C(F)(F)F)c2)nc1C1CCN(c2ncnc3[nH]ncc23)CC1", "note": "[LY2584702]", "values": [{"measurement": "IC50", "value": 4.2, "unit": "nM"}]}]}
